Key:
Assay type in all cases: in vivo
[1] = system: redroot pigweed (Amaranthus retroflexus, AMARE); experiment: Pre-emerge test, greenhouse herbicide activity screening; details: for phytotoxicity rating AMARE: pre-emerge, 14 days after application, scale 0-100; for Pre-emerge Herbicidal Activity, phytotoxicity rating (0-100), AMARE: rated 14 days after application, 0 = no damage, 100 = complete death
How it was run: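 Herbicidal damage is scored 0 (none) to 100 (complete plant death) two weeks after a simulated field spray. Rates span 15–1000 g ai/ha, delivered in acetone at 187 l/ha. For post-emergence treatments, plants have 2–3 leaves and the spray carries 0.25% v/v non-ionic surfactant.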

[2] = system: barnyardgrass (Echinochloa crus-galli, ECHCG); experiment: as above; details: for phytotoxicity rating ECHCG: pre-emerge, 14 days after application, scale 0-100; for Pre-emerge Herbicidal Activity, phytotoxicity rating (0-100), ECHCG: rated 14 days after application, 0 = no damage, 100 = complete death
How it was run: (§1)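 Visual ratings on a 0-100 scale (0 no damage, 100 all plants dead) were taken at 14 days after treatment. Rates of 15-1000 g ai/ha in acetone, 187 l/ha, were sprayed onto soil one day after planting (pre-emerge) or onto 2-3 leaf plants with 0.25% v/v surfactant (post-emerge).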

[3] = system: green foxtail (Setaria viridis, SETVI); experiment: as above; details: for phytotoxicity rating SETVI: pre-emerge, 14 days after application, scale 0-100; for Pre-emerge Herbicidal Activity, phytotoxicity rating (0-100), SETVI: rated 14 days after application, 0 = no damage, 100 = complete death
How it was run: as §1

[4] = system: ivyleaf morningglory (Ipomoea hederacea, IPOHE); experiment: as above; details: for phytotoxicity rating IPOHE: pre-emerge, 14 days after application, scale 0-100; for Pre-emerge Herbicidal Activity, phytotoxicity rating (0-100), IPOHE: rated 14 days after application, 0 = no damage, 100 = complete death
How it was run: as §1

[5] = system: johnsongrass (Sorghum halepense, SORHA); experiment: as above; details: for phytotoxicity rating SORHA: pre-emerge, 14 days after application, scale 0-100; for Pre-emerge Herbicidal Activity, phytotoxicity rating (0-100), SORHA: rated 14 days after application, 0 = no damage, 100 = complete death
How it was run: as §1

[6] = system: lambsquarters (Chenopodium album, CHEAL); experiment: as above; details: for phytotoxicity rating CHEAL: pre-emerge, 14 days after application, scale 0-100; for Pre-emerge Herbicidal Activity, phytotoxicity rating (0-100), CHEAL: rated 14 days after application, 0 = no damage, 100 = complete death
How it was run: as §1

[7] = system: large crabgrass (Digitaria sanguinalis, DIGSA); experiment: as above; details: for phytotoxicity rating DIGSA: pre-emerge, 14 days after application, scale 0-100; for Pre-emerge Herbicidal Activity, phytotoxicity rating (0-100), DIGSA: rated 14 days after application, 0 = no damage, 100 = complete death
How it was run: as §1

[8] = system: sicklepod (Cassia obtusifolia, CASOB); experiment: as above; details: for phytotoxicity rating CASOB: pre-emerge, 14 days after application, scale 0-100; for Pre-emerge Herbicidal Activity, phytotoxicity rating (0-100), CASOB: rated 14 days after application, 0 = no damage, 100 = complete death
How it was run: as §1

[9] = system: velvetleaf (Abutilon theophrasti, ABUTH); experiment: as above; details: for phytotoxicity rating ABUTH: pre-emerge, 14 days after application, scale 0-100; for Pre-emerge Herbicidal Activity, phytotoxicity rating (0-100), ABUTH: rated 14 days after application, 0 = no damage, 100 = complete death
How it was run: as §1

[10] = system: barnyardgrass (Echinochloa crus-galli, ECHCG); experiment: Post-emerge test, greenhouse herbicide activity screening; details: post-emerge, 14 days after application, rating scale 0-100
How it was run: as §1

[11] = system: green foxtail (Setaria viridis, SETVI); experiment: as above; details: post-emerge, 14 days after application, rating scale 0-100
How it was run: as §1

[12] = system: ivyleaf morningglory (Ipomoea hederacea, IPOHE); experiment: as above; details: post-emerge, 14 days after application, rating scale 0-100
How it was run: as §1

[13] = system: johnsongrass (Sorghum halepense, SORHA); experiment: as above; details: post-emerge, 14 days after application, rating scale 0-100
How it was run: as §1

[14] = system: large crabgrass (Digitaria sanguinalis, DIGSA); experiment: as above; details: post-emerge, 14 days after application, rating scale 0-100
How it was run: as §1

[15] = system: redroot pigweed (Amaranthus retroflexus, AMARE); experiment: as above; details: post-emerge, 14 days after application, rating scale 0-100
How it was run: as §1

[16] = system: sicklepod (Cassia obtusifolia, CASOB); experiment: as above; details: post-emerge, 14 days after application, rating scale 0-100
How it was run: as §1

[17] = system: velvetleaf (Abutilon theophrasti, ABUTH); experiment: as above; details: post-emerge, 14 days after application, rating scale 0-100
How it was run: as §1

[18] = system: lambsquarters (Chenopodium album, CHEAL); experiment: as above; details: post-emerge, 14 days after application, rating scale 0-100
How it was run: as §1

In the case of `Cn1c(C(F)(F)F)cc(=O)n(-c2c(F)cc(Cl)cc2NC(=O)c2ccc3ccccc3c2)c1=O` [Compound 2-145, 3-[4-chloro-6-fluoro-2-(2-naphthoylamino)phenyl]-1-methyl-6-trifluoromethyl-2,4(1H, 3H)-pyrimidinedione], the “phytotoxicity rating AMARE” value ([1]; 63 g ai/ha) is reported as 100, the “phytotoxicity rating AMARE” value ([1]; 250 g ai/ha) is reported as 100 and the “phytotoxicity rating ECHCG” value ([2]; 63 g ai/ha) is reported as 35. For the same molecule, the “phytotoxicity rating ECHCG” value ([2]; 250 g ai/ha) was 60, the “phytotoxicity rating SETVI” value ([3]; 63 g ai/ha) was 60 and the “phytotoxicity rating SETVI” value ([3]; 250 g ai/ha) was 100. For the same molecule, the “phytotoxicity rating IPOHE” value ([4]; 63 g ai/ha) was 10, the “phytotoxicity rating IPOHE” value ([4]; 250 g ai/ha) was 100 and the “phytotoxicity rating SORHA” value ([5]; 63 g ai/ha) was 30. For the same molecule, the “phytotoxicity rating SORHA” value ([5]; 250 g ai/ha) was 50, the “phytotoxicity rating CHEAL” value ([6]; 63 g ai/ha) was 100 and the “phytotoxicity rating CHEAL” value ([6]; 250 g ai/ha) was 100. The “phytotoxicity rating DIGSA” value ([7]; 63 g ai/ha) was 90, the “phytotoxicity rating DIGSA” value ([7]; 250 g ai/ha) was 100 and the “phytotoxicity rating CASOB” value ([8]; 63 g ai/ha) was 40. For the same molecule, the “phytotoxicity rating CASOB” value ([8]; 250 g ai/ha) was 90, the “phytotoxicity rating ABUTH” value ([9]; 63 g ai/ha) was 90 and the “phytotoxicity rating ABUTH” value ([9]; 250 g ai/ha) was 100. For the same molecule, the ECHCG phytotoxicity rating ([10]; 63 g ai/ha) was 0, the ECHCG phytotoxicity rating ([10]; 250 g ai/ha) was 20 and the SETVI phytotoxicity rating ([11]; 63 g ai/ha) was 0. It also gave an SETVI phytotoxicity rating ([11]; 250 g ai/ha) of 40, an IPOHE phytotoxicity rating ([12]; 63 g ai/ha) of 100 and an IPOHE phytotoxicity rating ([12]; 250 g ai/ha) of 100. For the same molecule, the SORHA phytotoxicity rating ([13]; 63 g ai/ha) was 0, the SORHA phytotoxicity rating ([13]; 250 g ai/ha) was 10 and the DIGSA phytotoxicity rating ([14]; 63 g ai/ha) was 0. For the same molecule, the DIGSA phytotoxicity rating ([14]; 250 g ai/ha) was 10, the AMARE phytotoxicity rating ([15]; 63 g ai/ha) was 95 and the AMARE phytotoxicity rating ([15]; 250 g ai/ha) was 100. The CASOB phytotoxicity rating ([16]; 63 g ai/ha) was 100, the CASOB phytotoxicity rating ([16]; 250 g ai/ha) was 100 and the ABUTH phytotoxicity rating ([17]; 63 g ai/ha) was 100. It also gave an ABUTH phytotoxicity rating ([17]; 250 g ai/ha) of 100.
With `Cn1c(C(F)(F)F)cc(=O)n(-c2c(F)cc(Cl)c(OC(F)F)c2NC(=O)c2ccc3ccccc3c2)c1=O` [Compound 2-115, 3-[4-chloro-3-difluoromethoxy-6-fluoro-2-(2-naphthoylamino)phenyl]-1-methyl-6-trifluoromethyl-2,4(1H, 3H)-pyrimidinedione] the “Pre-emerge Herbicidal Activity, phytotoxicity rating (0-100), AMARE” value ([1]; 63 g ai/ha) was 100, the “Pre-emerge Herbicidal Activity, phytotoxicity rating (0-100), AMARE” value ([1]; 125 g ai/ha) was 100 and the “Pre-emerge Herbicidal Activity, phytotoxicity rating (0-100), ECHCG” value ([2]; 63 g ai/ha) was 80. For the same molecule, the “Pre-emerge Herbicidal Activity, phytotoxicity rating (0-100), ECHCG” value ([2]; 125 g ai/ha) was 95, the “Pre-emerge Herbicidal Activity, phytotoxicity rating (0-100), SETVI” value ([3]; 63 g ai/ha) was 90 and the “Pre-emerge Herbicidal Activity, phytotoxicity rating (0-100), SETVI” value ([3]; 125 g ai/ha) was 99. The “Pre-emerge Herbicidal Activity, phytotoxicity rating (0-100), IPOHE” value ([4]; 63 g ai/ha) was 0, the “Pre-emerge Herbicidal Activity, phytotoxicity rating (0-100), IPOHE” value ([4]; 125 g ai/ha) was 90 and the “Pre-emerge Herbicidal Activity, phytotoxicity rating (0-100), SORHA” value ([5]; 63 g ai/ha) was 20. The “Pre-emerge Herbicidal Activity, phytotoxicity rating (0-100), SORHA” value ([5]; 125 g ai/ha) was 30, the “Pre-emerge Herbicidal Activity, phytotoxicity rating (0-100), CHEAL” value ([6]; 63 g ai/ha) was 100 and the “Pre-emerge Herbicidal Activity, phytotoxicity rating (0-100), CHEAL” value ([6]; 125 g ai/ha) was 100. The “Pre-emerge Herbicidal Activity, phytotoxicity rating (0-100), DIGSA” value ([7]; 63 g ai/ha) was 90, the “Pre-emerge Herbicidal Activity, phytotoxicity rating (0-100), DIGSA” value ([7]; 125 g ai/ha) was 100 and the “Pre-emerge Herbicidal Activity, phytotoxicity rating (0-100), CASOB” value ([8]; 63 g ai/ha) was 20. The “Pre-emerge Herbicidal Activity, phytotoxicity rating (0-100), CASOB” value ([8]; 125 g ai/ha) was 80, the “Pre-emerge Herbicidal Activity, phytotoxicity rating (0-100), ABUTH” value ([9]; 63 g ai/ha) was 100 and the “Pre-emerge Herbicidal Activity, phytotoxicity rating (0-100), ABUTH” value ([9]; 125 g ai/ha) was 100. For the same molecule, the “phytotoxicity rating ECHCG” value ([10]; 63 g ai/ha) was 10, the “phytotoxicity rating ECHCG” value ([10]; 250 g ai/ha) was 20 and the “phytotoxicity rating SETVI” value ([11]; 63 g ai/ha) was 0. The “phytotoxicity rating SETVI” value ([11]; 250 g ai/ha) was 0, the “phytotoxicity rating IPOHE” value ([12]; 63 g ai/ha) was 90 and the “phytotoxicity rating IPOHE” value ([12]; 250 g ai/ha) was 95. For the same molecule, the “phytotoxicity rating SORHA” value ([13]; 63 g ai/ha) was 0, the “phytotoxicity rating SORHA” value ([13]; 250 g ai/ha) was 0 and the “phytotoxicity rating CHEAL” value ([18]; 63 g ai/ha) was 100. The “phytotoxicity rating CHEAL” value ([18]; 250 g ai/ha) was 100, the “phytotoxicity rating DIGSA” value ([14]; 63 g ai/ha) was 20 and the “phytotoxicity rating DIGSA” value ([14]; 250 g ai/ha) was 50. The “phytotoxicity rating AMARE” value ([15]; 63 g ai/ha) was 100, the “phytotoxicity rating AMARE” value ([15]; 250 g ai/ha) was 100 and the “phytotoxicity rating CASOB” value ([16]; 63 g ai/ha) was 90. For the same molecule, the “phytotoxicity rating CASOB” value ([16]; 250 g ai/ha) was 95, the “phytotoxicity rating ABUTH” value ([17]; 63 g ai/ha) was 100 and the “phytotoxicity rating ABUTH” value ([17]; 250 g ai/ha) was 100.
